This passage reports Kd and IC50 results from patent US20240246954A1, “COMPOSITIONS AND METHODS FOR INHIBITING KRAS” (TheRas, Inc., priority 2021, published 2024).

Where only a bound is given, the exact number is not on record here.

Test [1] concerns the target GppNHp KRAS G12D (Homo sapiens, UniProt P01116, G12D). Kind of test: SPR binding affinity, GppNHp KRAS G12D. The conditions noted are these: GppNHp-bound KRAS G12D.
Test [2] has as its target T1, Avi-KRAS G12D (1-169) GppNHp/RAF1 RBD-3×FLAG (52-151) (Homo sapiens, UniProt P01116, G12D).
T1 construct: Avi-KRAS G12D (1-169) GppNHp
Kind of test: HTRF Raf1-KRAS G12D-GppNHp disruption assay. The conditions noted are these: 1 h incubation. It is filed as biochemical. The gist of the method:
(§1)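 Compounds titrated from 100 μM in a 10-point series, incubated with protein mix 1 h at room temperature, then HTRF reagents a further 1 h. Time-resolved fluorescence read (excitation 320 nm, emission 615 nm); activity expressed as percentage of DMSO control.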
(In general: TR-FRET usually uses a lanthanide donor and a delayed reading to cut background.)

Test [3] addresses T2, Avi-KRAS G12D/Q25A (1-169) GppNHp/3×FLAG-PI3KCA (157-299) (Homo sapiens, UniProt P01116, G12D/Q25A).
T2 construct: Avi-KRAS G12D/Q25A (1-169) GppNHp
Kind of test: HTRF PI3KCA-KRAS G12D/Q25A-GppNHp disruption assay. It is filed as biochemical. The conditions noted are these: 1 h incubation. The gist of the method: as §1

For test [4], the system named is pERK in GP2d cells (KRAS G12D). Kind of test: Cell-based pERK HTRF assay. Particulars: GP2d, 1 h, 60 min incubation. The essentials: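 GP2d cells (DMEM, 10% FBS) treated 60 min with compounds in a 9-point half-log series from 1 μM top concentration, 0.25% DMSO. Lysates read for pERK by HTRF (d2/Eu cryptate antibodies) after 4–24 h at room temperature; emission at 615 nm.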

Sequence of GppNHp KRAS G12D (P01116 1-188 isoform P01116-2 G12D): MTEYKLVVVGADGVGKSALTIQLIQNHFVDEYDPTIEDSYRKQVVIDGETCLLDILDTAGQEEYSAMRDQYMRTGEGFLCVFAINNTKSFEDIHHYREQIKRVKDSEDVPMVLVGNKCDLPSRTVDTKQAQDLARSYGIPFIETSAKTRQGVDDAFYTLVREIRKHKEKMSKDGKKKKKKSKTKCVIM
T2 sequence (P01116 1-169 isoform P01116-2 G12D/Q25A limits assumed): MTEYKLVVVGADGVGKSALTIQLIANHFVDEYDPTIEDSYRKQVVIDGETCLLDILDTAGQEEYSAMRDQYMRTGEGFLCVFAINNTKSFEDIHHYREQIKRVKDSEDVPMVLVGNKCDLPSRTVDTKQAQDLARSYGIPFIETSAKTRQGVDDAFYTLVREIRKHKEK
T1 sequence (P01116 1-169 isoform P01116-2 G12D limits assumed): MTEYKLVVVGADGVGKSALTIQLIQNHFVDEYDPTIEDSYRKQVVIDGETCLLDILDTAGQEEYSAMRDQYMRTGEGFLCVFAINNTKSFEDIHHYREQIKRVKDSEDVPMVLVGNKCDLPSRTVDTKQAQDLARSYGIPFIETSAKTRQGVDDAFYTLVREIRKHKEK

As a reminder, the Kd is the concentration at which binding is half-saturated. One may read the IC50 as the concentration that inhibits the measured activity by half. Low values mean higher potency, high ones lower potency. In test [1], `CN1CCC[C@H]1COc1nc(N2CCN(C(=O)CN)[C@@H](CC#N)C2)c2cc(Cl)c(-c3ccc(F)c4sc(N)nc34)c(O)c2n1` [Compound 59] gave a Kd of 1 to 10 µM. Further, the IC50 in test [2] and in test [3] was 10 to 30 µM each time.

Take `CO[C@@H]1CN(C)C[C@H]1Oc1nc(NCCN)c2cc(Cl)c(-c3ccc(F)c4sc(N)nc34)c(F)c2n1` [Compound 60]: in test [1], the Kd fell in the range of 10 to 30 µM. Besides, the IC50 in test [2] and in test [3] was 10 to 30 µM throughout.

Regarding `CO[C@@H]1C[C@@H](COc2nc(NCCN)c3cc(Cl)c(-c4ccc(F)c5sc(N)nc45)c(F)c3n2)N(C)C1` [Compound 61], the Kd in test [1] lay within 1 to 10 µM. For the same compound, the IC50 in test [2] and in test [3] was 1 to 10 µM throughout.

Compound `Cc1ccc2[nH]ncc2c1-c1c(Cl)cc2c(NCCN)nc(OC[C@@H]3CCCN3C)nc2c1F` [Compound 62] yielded a dissociation constant Kd in test [1] of 10 to 30 µM. Further, the IC50 in test [2] and in test [3] was 10 to 30 µM throughout.

With `CO[C@@H]1CN(C)C[C@H]1Oc1nc(N2CCNCC2)c2cc(Cl)c(-c3ccc(F)c4sc(N)nc34)c(F)c2n1` [Compound 63], the Kd in test [1] lay in the range of 10 to 30 µM. Further, the IC50 in test [2] and in test [3] was 10 to 30 µM each time.

In test [1], `CN1CCC[C@H]1COc1nc(NCCN)c2cc(Cl)c(-c3cccc4cc(O)ccc34)c(F)c2n1` [Compound 74] showed a Kd of 10 to 30 µM. In addition, the IC50 in test [2] and in test [3] was 10 to 30 µM throughout.

On to `Nc1nc2c(-c3c(C(F)(F)F)cc4c(N5CC[C@@H]6CNC[C@@H]65)nc(OC[C@@]56CCCN5C[C@H](F)C6)nc4c3F)ccc(F)c2s1` [Compound 351], for which the IC50 in test [4], in test [2] and in test [3] was 0.1 to 1 µM each time.

Turning to `Nc1nc2c(-c3c(C(F)(F)F)cc4c(N5CC[C@H]6CNC[C@H]65)nc(OC[C@@]56CCCN5C[C@H](F)C6)nc4c3F)ccc(F)c2s1` [Compound 352], the results for the IC50 in test [4], in test [2] and in test [3] were 0.1 to 1 µM, 1 to 10 µM and 1 to 10 µM, respectively.

`CN(c1nc(OC[C@@]23CCCN2C[C@H](F)C3)nc2c(F)c(-c3ccc(F)c4sc(N)c(C#N)c34)c(C(F)(F)F)cc12)[C@H]1CNC[C@H]1F` [Compound 353]: the IC50 is at most 0.1 µM in test [4], 0.1 to 1 µM in test [2] and 0.1 to 1 µM in test [3].

For `CN(c1nc(OC[C@@]23CCCN2C[C@H](F)C3)nc2cc(-c3ccc(F)c4sc(N)nc34)c(C(F)(F)F)cc12)[C@H]1CNC[C@H]1F` [Compound 354], the IC50 in test [4], in test [2] and in test [3] was 0.1 to 1 µM each time.

As for `CN(c1nc(OC[C@@]23CCCN2C[C@H](F)C3)nc2c(F)c(-c3ccc(F)c4sc(N)c(C#N)c34)c(C(F)(F)F)cc12)[C@H]1CNC[C@@H]1F` [Compound 355], the IC50 was at most 0.1 µM in test [4], 0.1 to 1 µM in test [2] and 1 to 10 µM in test [3].

On to `CN(c1nc(OC[C@@]23CCCN2C[C@H](F)C3)nc2cc(-c3ccc(F)c4sc(N)c(C#N)c34)c(C(F)(F)F)cc12)[C@H]1CNC[C@@H]1F` [Compound 356], for which the IC50 is 0.1 to 1 µM in test [4], 1 to 10 µM in test [2] and 1 to 10 µM in test [3].

With `C[C@@H]1C[C@@H](N(C)c2nc(OC[C@@]34CCCN3C[C@H](F)C4)nc3c(F)c(-c4ccc(F)c5sc(N)c(C#N)c45)ccc23)CN1` [Compound 357], the IC50 is 0.1 to 1 µM in test [4], 1 to 10 µM in test [2] and 1 to 10 µM in test [3].

Regarding `N#Cc1c(N)sc2c(F)ccc(-c3ccc4c(N5CC6CCC(C5)N6)nc(OC[C@@]56CCCN5C[C@H](F)C6)nc4c3F)c12` [Compound 358], the values for the IC50 in test [4], in test [2] and in test [3] were at most 0.1 µM, 0.1 to 1 µM and 1 to 10 µM, respectively.

With `N#Cc1cc2c(N3C[C@H]4CC[C@@H](C3)N4)nc(OC[C@@]34CCCN3C[C@H](F)C4)nc2c(F)c1-c1ccc(F)c2sc(N)c(C#N)c12` [Compound 359, 7-(2-amino-3-cyano-7-fluorobenzo[b]thiophen-4-yl)-4-((1R,5S)-3,8-diazabicyclo[3.2.1]octan-3-yl)-8-fluoro-2-(((2R,7aS)-2-fluorotetrahydro-1H-pyrrolizin-7a(5H)-yl)methoxy)quinazoline-6-carbonitrile], the results for the IC50 in test [4], in test [2] and in test [3] were at most 0.1 µM, 0.1 to 1 µM and 0.1 to 1 µM, respectively.

For the compound `CN(c1nc(OC[C@@]23CCCN2C[C@H](F)C3)nc2c(F)c(-c3ccc(F)c4sc(N)c(C#N)c34)c(C(F)(F)F)cc12)[C@]1(C)CCNC1` [Compound 360], the IC50 in test [4] was at most 0.1 µM; in test [2] it was at most 0.1 µM; in test [3], 0.1 to 1 µM.

`CN(c1nc(OC[C@@]23CCCN2C[C@H](F)C3)nc2c(F)c(-c3ccc(F)c4sc(N)c(C#N)c34)c(F)cc12)[C@H]1CCNC1` [Compound 361, 2-amino-4-(6,8-difluoro-2-(((2R,7aS)-2-fluorotetrahydro-1H-pyrrolizin-7a(5H)-yl)methoxy)-4-(methyl((S)-pyrrolidin-3-yl)amino)quinazolin-7-yl)-7-fluorobenzo[b]thiophene-3-carbonitrile]: the 50% inhibitory concentration (IC50) in test [4], in test [2] and in test [3] was 0.1 to 1 µM throughout.

In the case of `N#Cc1c(N)sc2c(F)ccc(-c3c(C(F)(F)F)cc4c(N5C[C@H]6CC[C@@H](C5)N6)nc(N5CC(N6CC7(CC7)C6)C5)nc4c3F)c12` [Compound 363, 4-(2-(3-(5-azaspiro[2.3]hexan-5-yl)azetidin-1-yl)-4-((1R,5S)-3,8-diazabicyclo[3.2.1]octan-3-yl)-8-fluoro-6-(trifluoromethyl)quinazolin-7-yl)-2-amino-7-fluorobenzo[b]thiophene-3-carbonitrile], the half-inhibitory concentration (IC50) in test [4] was at most 0.1 µM; in test [2] it was 0.1 to 1 µM; in test [3], 0.1 to 1 µM.

Turning to `CN(c1nc(OC[C@@]23CCCN2C[C@H](F)C3)nc2c(F)c(-c3ccc(F)c4sc(N)c(C#N)c34)c(C(F)(F)F)cc12)[C@@H]1CCN[C@@H]1CF` [Compound 364], the results for the concentration for half-maximal inhibition (IC50) in test [4], in test [2] and in test [3] were at most 0.1 µM, at most 0.1 µM and 0.1 to 1 µM, respectively.

Turning to `CN(c1nc(N2CC(N3CC4(CC4)C3)C2)nc2c(F)c(-c3ccc(F)c4sc(N)c(C#N)c34)c(C(F)(F)F)cc12)[C@@H]1CCNC1` [Compound 365], the IC50 in test [4], in test [2] and in test [3] was 0.1 to 1 µM each time.

Regarding `Nc1nc2c(-c3c(C(F)F)cc4c(N5C[C@H]6CC[C@@H](C5)N6)nc(OC[C@@]56CCCN5C[C@H](F)C6)nc4c3Cl)ccc(F)c2s1` [Compound 368, 4-(4-((1R,5S)-3,8-diazabicyclo[3.2.1]octan-3-yl)-8-chloro-6-(difluoromethyl)-2-(((2R,7aS)-2-fluorotetrahydro-1H-pyrrolizin-7a(5H)-yl)methoxy)quinazolin-7-yl)-7-fluorobenzo[d]thiazol-2-amine], the IC50 in test [4] is at most 0.1 µM; in test [2], 0.1 to 1 µM; in test [3], 0.1 to 1 µM.

With `Nc1nc2c(-c3c(C(F)F)cc4c(N5C[C@H]6CC[C@@H](C5)N6)nc(OC[C@@]56CCCN5C[C@H](F)C6)nc4c3F)ccc(F)c2s1` [Compound 370, 4-(4-((1R,5S)-3,8-diazabicyclo[3.2.1]octan-3-yl)-6-(difluoromethyl)-8-fluoro-2-(((2R,7aS)-2-fluorotetrahydro-1H-pyrrolizin-7a(5H)-yl)methoxy)quinazolin-7-yl)-7-fluorobenzo[d]thiazol-2-amine], the half-maximal inhibitory concentration (IC50) in test [4] is at most 0.1 µM; in test [2], 0.1 to 1 µM; in test [3] it was 0.1 to 1 µM.

In the case of `N#Cc1c(-c2ccc(F)c3sc(N)c(C#N)c23)c(Cl)cc2c(N3CC4CCC(C3)N4)nc(OC[C@@]34CCCN3C[C@H](F)C4)nc12` [Compound 371], the figures for the concentration for half-maximal inhibition (IC50) in test [4], in test [2] and in test [3] were at most 0.1 µM, 0.1 to 1 µM and 0.1 to 1 µM, respectively.

Take `N#Cc1cc2c(N3CC4CCC(C3)N4)nc(OC[C@@]34CCCN3C[C@H](F)C4)nc2c(Cl)c1-c1ccc(F)c2sc(N)c(C#N)c12` [Compound 372]: the half-inhibitory concentration (IC50) in test [4] lay in the range of 0.1 to 1 µM; in test [2], 1 to 10 µM; in test [3], 1 to 10 µM.

Consider `Nc1nc2c(-c3cc4nc(OC[C@@]56CCCN5C[C@H](F)C6)nc(O[C@H]5CNC[C@@H]5F)c4cc3C(F)(F)F)ccc(F)c2s1` [Compound 374], for which the IC50 in test [4] was above 1 µM; in test [2], 1 to 10 µM; in test [3] it was 10 to 30 µM.

As to `N#Cc1c(N)sc2c(F)ccc(-c3c(C(F)(F)F)cc4c(N5CC[C@@H]6CNCC[C@@H]65)nc(OC[C@@]56CCCN5C[C@H](F)C6)nc4c3F)c12` [Compound 376], the IC50 was at most 0.1 µM in test [4], 0.1 to 1 µM in test [2] and 0.1 to 1 µM in test [3].

Consider `CN(c1nc(OC[C@@]23CCCN2C[C@H](F)C3)nc2c(F)c(-c3ccc(F)c4sc(N)c(C#N)c34)c(F)cc12)[C@@H]1CCNC1` [Compound 377], for which the IC50 in test [4], in test [2] and in test [3] was 0.1 to 1 µM each time.

Turning to `C[C@@H]1CN(c2nc(OC[C@@]34CCCN3C[C@H](F)C4)nc3c(F)c(-c4ccc(F)c5sc(N)c(C#N)c45)c(C(F)(F)F)cc23)[C@@H](C)CN1` [Compound 378], the concentration for half-maximal inhibition (IC50) is at most 0.1 µM in test [4], at most 0.1 µM in test [2] and 0.1 to 1 µM in test [3].

For the compound `CN(c1nc(OC[C@@]23CCCN2C[C@H](F)C3)nc2c(F)c(-c3ccc(F)c4sc(N)c(C#N)c34)c(Cl)cc12)[C@@H]1CCNC1` [Compound 379], the figures for the IC50 in test [4], in test [2] and in test [3] were at most 0.1 µM, 0.1 to 1 µM and 0.1 to 1 µM, respectively.
